Experimental data from publication PMC4933336, “Examining the Effects of Sodium Ions on the Binding of Antagonists to Dopamine D2 and D3 Receptors” (PLoS ONE, 2016).

Target: T1, dopamine D3 receptor (D3), Sf9 (Homo sapiens, UniProt P35462)
T1 construct: gene DRD3; full-length from pCMV5-hD3, no tag mentioned; membranes of Sf9 cells (baculovirus)
Assay: [3H]spiperone competition binding, Sf9 membranes
Conditions: read-out: D3 / + NaCl

T1 sequence (P35462 whole entry): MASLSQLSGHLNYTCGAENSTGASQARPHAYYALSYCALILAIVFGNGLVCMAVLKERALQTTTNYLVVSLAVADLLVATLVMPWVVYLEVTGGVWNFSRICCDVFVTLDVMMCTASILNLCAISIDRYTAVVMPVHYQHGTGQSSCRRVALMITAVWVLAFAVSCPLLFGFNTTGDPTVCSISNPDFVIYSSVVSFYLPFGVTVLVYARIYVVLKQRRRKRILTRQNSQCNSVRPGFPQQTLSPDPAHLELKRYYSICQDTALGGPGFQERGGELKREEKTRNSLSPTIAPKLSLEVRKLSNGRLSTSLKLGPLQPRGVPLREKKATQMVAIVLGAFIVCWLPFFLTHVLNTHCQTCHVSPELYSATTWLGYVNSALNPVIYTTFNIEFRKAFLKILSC

Row | Compound | IC50 [nM]
1 | COc1ccccc1N1CCN(CCCCNC(=O)c2ccc(-c3ccc(C(C)=O)cc3)cc2)CC1 [GR 103691] | 0.46
2 | CCCN(CCC)C1Cc2cc(OC)c(OC)cc2C1 [U 99194] | 532
